For 28 targets, thermal stability z-score results are on record in the supplement of paper PMC12463676, “Small-molecule dissolution of stress granules by redox modulation benefits ALS models” (Nature Chemical Biology, 2025).

Compound in one assay: NC(=O)CCCCC1CCSS1 [lipoamide]
In words: thermal stability z-score vs DMSO; higher = more thermally stabilized by treatment. The following applies: HeLa, lipoamide concentration 100 µM. As to the method:
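Cellular thermal proteome profiling in HeLa cells. Cells were treated with 100 µM lipoamide for 1 h, with or without 1 mM arsenate for a further 1 h, then heated to ten temperatures (37-66.3 °C), and soluble protein was quantified by TMT mass spectrometry relative to 0.1% DMSO controls. The thermal stability score (sum of log2 fold changes minus the abundance score) was transformed to a z-score; mean of n = 3 experiments.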

Compound in the next assay: O=[As]([O-])(O)O.[K+] [potassium arsenate]
The assay is described as above. The following applies: HeLa; arsenate concentration 1 mM. As to the method:
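Cellular thermal proteome profiling in HeLa cells treated with 1 mM arsenate for 1 h (DMSO pretreatment), heated to ten temperatures (37-66.3 °C). Soluble protein was quantified by TMT mass spectrometry relative to DMSO controls; the thermal stability score was transformed to a z-score; mean of n = 3 experiments.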

Setting [1] is: arsenate co-treatment: 1 mM arsenate 1 h.
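Also: each temperature applied for 3 min, abundance score taken as mean log2 fold change at the two lowest temperatures, z-score obtained by mean subtraction and division by SD.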

Sequence of UniProt P09012 (P09012 whole entry): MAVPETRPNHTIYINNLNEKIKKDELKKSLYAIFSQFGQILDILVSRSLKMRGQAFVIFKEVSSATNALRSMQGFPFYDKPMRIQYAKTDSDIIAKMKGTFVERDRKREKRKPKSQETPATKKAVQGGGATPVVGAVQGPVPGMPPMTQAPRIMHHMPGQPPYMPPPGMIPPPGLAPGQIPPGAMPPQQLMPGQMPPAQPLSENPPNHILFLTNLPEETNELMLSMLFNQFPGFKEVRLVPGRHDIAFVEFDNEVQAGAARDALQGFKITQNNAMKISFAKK
Sequence of UniProt P14324 (P14324 whole entry): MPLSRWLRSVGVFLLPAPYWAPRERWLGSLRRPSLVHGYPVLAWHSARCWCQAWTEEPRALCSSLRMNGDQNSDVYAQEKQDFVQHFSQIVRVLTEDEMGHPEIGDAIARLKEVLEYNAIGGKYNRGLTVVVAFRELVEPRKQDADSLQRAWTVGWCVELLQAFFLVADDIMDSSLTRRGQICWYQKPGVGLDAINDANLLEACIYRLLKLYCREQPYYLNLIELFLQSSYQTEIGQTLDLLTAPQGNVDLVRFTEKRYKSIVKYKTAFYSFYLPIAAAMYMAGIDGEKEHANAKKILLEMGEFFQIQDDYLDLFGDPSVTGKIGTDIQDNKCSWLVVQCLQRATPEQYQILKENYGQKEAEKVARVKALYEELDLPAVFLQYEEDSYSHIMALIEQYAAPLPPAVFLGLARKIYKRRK
Sequence of UniProt Q9UNM6 (Q9UNM6 whole entry): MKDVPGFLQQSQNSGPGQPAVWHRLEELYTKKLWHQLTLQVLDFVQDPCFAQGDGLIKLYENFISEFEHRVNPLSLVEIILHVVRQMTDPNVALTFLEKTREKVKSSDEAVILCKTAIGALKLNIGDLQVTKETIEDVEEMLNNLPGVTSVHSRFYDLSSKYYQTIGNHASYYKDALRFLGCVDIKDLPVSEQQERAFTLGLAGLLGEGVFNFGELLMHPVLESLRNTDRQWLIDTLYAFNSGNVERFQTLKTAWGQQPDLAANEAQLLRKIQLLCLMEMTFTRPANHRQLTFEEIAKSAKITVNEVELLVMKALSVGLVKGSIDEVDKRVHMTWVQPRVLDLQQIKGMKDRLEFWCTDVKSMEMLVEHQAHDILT
Sequence of UniProt Q92925 (Q92925 whole entry): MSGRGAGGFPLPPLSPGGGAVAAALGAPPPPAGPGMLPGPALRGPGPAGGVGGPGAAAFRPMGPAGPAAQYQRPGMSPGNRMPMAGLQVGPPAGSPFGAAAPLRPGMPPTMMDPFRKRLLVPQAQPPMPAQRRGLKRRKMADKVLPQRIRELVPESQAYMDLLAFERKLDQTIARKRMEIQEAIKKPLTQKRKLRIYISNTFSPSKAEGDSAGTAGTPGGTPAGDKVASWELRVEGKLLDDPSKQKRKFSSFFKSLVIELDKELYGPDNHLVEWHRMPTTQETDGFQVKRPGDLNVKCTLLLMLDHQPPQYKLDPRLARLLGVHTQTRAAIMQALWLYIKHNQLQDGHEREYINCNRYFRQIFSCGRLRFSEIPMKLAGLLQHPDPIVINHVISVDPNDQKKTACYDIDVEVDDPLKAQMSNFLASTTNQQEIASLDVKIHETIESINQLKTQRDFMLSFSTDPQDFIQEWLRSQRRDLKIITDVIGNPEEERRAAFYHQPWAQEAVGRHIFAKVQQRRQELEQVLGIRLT
Sequence of UniProt P57105 (P57105 whole entry): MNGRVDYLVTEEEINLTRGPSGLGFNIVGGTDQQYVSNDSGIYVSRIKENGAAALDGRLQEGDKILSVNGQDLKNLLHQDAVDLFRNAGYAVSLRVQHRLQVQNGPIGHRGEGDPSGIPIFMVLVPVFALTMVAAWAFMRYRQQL
Sequence of UniProt Q6UWE0 (Q6UWE0 whole entry): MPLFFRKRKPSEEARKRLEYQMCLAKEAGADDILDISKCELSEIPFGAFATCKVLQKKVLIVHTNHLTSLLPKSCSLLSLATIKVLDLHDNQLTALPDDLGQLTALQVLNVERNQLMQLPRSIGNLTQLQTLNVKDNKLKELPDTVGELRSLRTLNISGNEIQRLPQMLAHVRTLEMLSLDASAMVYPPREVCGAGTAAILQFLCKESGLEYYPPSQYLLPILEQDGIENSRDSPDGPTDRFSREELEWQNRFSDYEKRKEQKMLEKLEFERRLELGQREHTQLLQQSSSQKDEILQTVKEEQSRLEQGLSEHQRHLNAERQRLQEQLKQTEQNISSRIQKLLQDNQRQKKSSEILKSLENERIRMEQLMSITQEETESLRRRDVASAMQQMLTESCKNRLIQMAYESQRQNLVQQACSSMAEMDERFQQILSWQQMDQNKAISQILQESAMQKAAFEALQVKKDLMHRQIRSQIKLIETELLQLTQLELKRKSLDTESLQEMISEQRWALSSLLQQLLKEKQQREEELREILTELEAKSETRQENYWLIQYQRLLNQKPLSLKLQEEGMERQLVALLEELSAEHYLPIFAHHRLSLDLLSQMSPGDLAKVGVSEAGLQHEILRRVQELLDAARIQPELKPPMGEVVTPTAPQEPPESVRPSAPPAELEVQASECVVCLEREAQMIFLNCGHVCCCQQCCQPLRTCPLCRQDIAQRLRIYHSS
Sequence of UniProt Q14693 (Q14693 whole entry): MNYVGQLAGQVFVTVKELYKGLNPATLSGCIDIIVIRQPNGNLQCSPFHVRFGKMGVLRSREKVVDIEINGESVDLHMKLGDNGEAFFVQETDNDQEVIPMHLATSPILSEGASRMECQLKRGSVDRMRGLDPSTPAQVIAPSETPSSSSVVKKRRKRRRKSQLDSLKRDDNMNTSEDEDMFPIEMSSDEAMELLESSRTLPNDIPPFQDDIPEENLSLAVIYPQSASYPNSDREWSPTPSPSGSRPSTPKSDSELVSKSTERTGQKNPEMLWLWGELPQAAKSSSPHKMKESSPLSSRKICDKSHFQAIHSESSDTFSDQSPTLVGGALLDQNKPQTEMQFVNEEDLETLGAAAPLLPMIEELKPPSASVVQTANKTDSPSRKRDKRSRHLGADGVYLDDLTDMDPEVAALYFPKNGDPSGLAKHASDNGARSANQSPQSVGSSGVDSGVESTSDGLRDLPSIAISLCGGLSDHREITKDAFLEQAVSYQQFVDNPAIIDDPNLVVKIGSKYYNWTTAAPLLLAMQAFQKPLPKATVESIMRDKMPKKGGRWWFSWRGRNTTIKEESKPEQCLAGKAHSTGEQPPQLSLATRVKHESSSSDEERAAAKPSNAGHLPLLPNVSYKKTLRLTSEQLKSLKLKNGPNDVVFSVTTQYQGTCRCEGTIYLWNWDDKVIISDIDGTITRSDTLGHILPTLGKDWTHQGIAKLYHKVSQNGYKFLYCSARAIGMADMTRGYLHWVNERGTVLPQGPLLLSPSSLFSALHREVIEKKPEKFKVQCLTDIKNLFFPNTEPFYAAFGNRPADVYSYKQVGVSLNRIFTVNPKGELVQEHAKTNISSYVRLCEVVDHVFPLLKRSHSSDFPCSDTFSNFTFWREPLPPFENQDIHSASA
Sequence of UniProt Q9UJX4 (Q9UJX4 whole entry): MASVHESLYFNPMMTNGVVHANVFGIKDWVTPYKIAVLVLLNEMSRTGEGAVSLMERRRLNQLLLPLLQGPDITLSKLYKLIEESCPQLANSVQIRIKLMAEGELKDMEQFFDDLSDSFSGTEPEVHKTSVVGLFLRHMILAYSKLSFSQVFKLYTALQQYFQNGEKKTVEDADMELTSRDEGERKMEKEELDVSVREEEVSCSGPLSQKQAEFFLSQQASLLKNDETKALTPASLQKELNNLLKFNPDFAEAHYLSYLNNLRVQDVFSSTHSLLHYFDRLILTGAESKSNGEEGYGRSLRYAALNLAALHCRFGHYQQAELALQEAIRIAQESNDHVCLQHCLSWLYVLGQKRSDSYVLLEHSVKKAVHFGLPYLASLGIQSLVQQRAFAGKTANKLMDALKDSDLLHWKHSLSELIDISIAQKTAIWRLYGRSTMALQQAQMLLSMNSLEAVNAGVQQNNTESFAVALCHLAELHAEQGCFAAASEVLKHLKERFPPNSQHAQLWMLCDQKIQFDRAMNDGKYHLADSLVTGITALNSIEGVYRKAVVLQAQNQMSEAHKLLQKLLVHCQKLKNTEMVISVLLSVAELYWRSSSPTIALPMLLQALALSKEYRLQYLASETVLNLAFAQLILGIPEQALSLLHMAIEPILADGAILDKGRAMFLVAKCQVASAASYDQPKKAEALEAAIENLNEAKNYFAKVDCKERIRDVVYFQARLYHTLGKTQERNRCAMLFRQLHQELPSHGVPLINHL
Sequence of UniProt O15226 (O15226 whole entry): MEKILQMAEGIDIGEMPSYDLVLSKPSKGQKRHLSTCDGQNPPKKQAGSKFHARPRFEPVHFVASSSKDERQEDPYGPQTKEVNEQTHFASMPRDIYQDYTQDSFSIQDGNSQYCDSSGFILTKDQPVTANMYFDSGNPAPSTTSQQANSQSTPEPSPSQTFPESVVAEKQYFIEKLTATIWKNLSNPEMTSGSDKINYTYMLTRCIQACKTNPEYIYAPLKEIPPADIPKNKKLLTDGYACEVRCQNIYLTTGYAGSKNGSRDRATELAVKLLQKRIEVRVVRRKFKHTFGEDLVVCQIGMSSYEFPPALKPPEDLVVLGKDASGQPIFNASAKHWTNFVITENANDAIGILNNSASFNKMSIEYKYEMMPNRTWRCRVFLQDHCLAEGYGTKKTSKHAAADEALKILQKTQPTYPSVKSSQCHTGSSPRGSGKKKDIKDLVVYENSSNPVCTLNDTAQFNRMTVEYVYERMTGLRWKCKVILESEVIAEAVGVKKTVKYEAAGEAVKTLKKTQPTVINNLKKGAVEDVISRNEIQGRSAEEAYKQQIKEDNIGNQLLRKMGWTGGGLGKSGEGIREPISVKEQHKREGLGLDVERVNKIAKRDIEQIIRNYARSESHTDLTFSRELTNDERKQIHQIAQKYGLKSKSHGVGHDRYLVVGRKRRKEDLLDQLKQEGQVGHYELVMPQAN

As to LPIN1 (UniProt Q14693), the results for the thermal stability z-score with lipoamide (setting [1]), with lipoamide (arsenate co-treatment: none) and with potassium arsenate were -0.429, -0.906 and -1.07, respectively.
The corresponding values for FDPS (UniProt P14324) are -0.000727, -0.16 and -0.437.
The corresponding values for IL27RA (UniProt Q6UWB1) are -0.395, 0.44 and 1.33.
The corresponding values for TIMELESS (UniProt Q9UNS1) are -0.244, -0.0831 and -0.498.
On to PPIL4 (UniProt Q8WUA2), for which the thermal stability z-score with lipoamide (setting [1]) was -0.441; with lipoamide (arsenate co-treatment: none) it was -0.236; in the assay with potassium arsenate, -0.913.
The corresponding values for CDR2 (UniProt Q01850) are 0.134, 0.141 and 0.139.
The corresponding values for MRPL22 (UniProt Q9NWU5) are 0.32, 0.464 and 0.467.
The corresponding values for EBAG9 (UniProt O00559) are 1.73, 1.25 and 0.749.
Regarding PHYHD1 (UniProt Q5SRE7), the thermal stability z-score was -0.0705 with lipoamide (setting [1]), 0.173 in the assay with lipoamide (arsenate co-treatment: none) and 0.196 with potassium arsenate.
LRSAM1 (UniProt Q6UWE0): the thermal stability z-score with lipoamide (setting [1]) is -0.763; with lipoamide (arsenate co-treatment: none), -0.714; in the assay with potassium arsenate, -0.676.
The corresponding values for PIKFYVE (UniProt Q9Y2I7) are 0.00547, -0.0522 and -0.189.
The corresponding values for SMG9 (UniProt Q9H0W8) are -0.596, -0.49 and -0.274.
The corresponding values for PAK1IP1 (UniProt Q9NWT1) are 0.104, -0.651 and -1.53.
On to PC (UniProt P11498), for which the thermal stability z-score in the assay with lipoamide (setting [1]) is -0.429; in the assay with lipoamide (arsenate co-treatment: none), -0.205; with potassium arsenate, -0.574.
The corresponding values for CRLF3 (UniProt Q8IUI8) are -0.236, -0.971 and 0.0579.
The corresponding values for NKRF (UniProt O15226) are -0.0267, 0.00359 and -0.311.
The corresponding values for DPH5 (UniProt Q9H2P9) are 0.634, 1.89 and -0.179.
Consider TRUB1 (UniProt Q8WWH5), for which the figures for the thermal stability z-score with lipoamide (setting [1]), with lipoamide (arsenate co-treatment: none) and with potassium arsenate were -0.102, 0.175 and 0.231, respectively.
Regarding SNRPA (UniProt P09012), the thermal stability z-score was 0.0421 with lipoamide (setting [1]), -0.126 with lipoamide (arsenate co-treatment: none) and 0.938 with potassium arsenate.
The corresponding values for ANAPC5 (UniProt Q9UJX4) are 0.0562, -0.0827 and -0.0639.
The corresponding values for PSMD13 (UniProt Q9UNM6) are -0.244, 0.13 and -0.0407.
The corresponding values for AKR1B1 (UniProt P15121) are 0.596, 0.698 and 1.19.
In the case of SMC3 (UniProt Q9UQE7), the thermal stability z-score with lipoamide (setting [1]) was 0.0797; with lipoamide (arsenate co-treatment: none), 0.288; with potassium arsenate, -0.181.
The corresponding values for SYNJ2BP (UniProt P57105) are 0.988, 0.247 and 0.518.
The corresponding values for SMARCD2 (UniProt Q92925) are 0.132, 0.101 and -0.0687.
The corresponding values for SDF2L1 (UniProt Q9HCN8) are -2.27, -1.73 and 0.265.
Take DSTYK (UniProt Q6XUX3): the thermal stability z-score in the assay with lipoamide (setting [1]) is 0.0406; with lipoamide (arsenate co-treatment: none), -0.378; with potassium arsenate, -0.117.
The corresponding values for EVL (UniProt Q9UI08) are -0.0697, 0.187 and -0.462.
